This note sets out measurements from patent US20130156845A1, “LIPID FORMULATED SINGLE STRANDED RNA” (ALNYLAM PHARMACEUTICALS, INC., priority 2010, published 2013).

e = 2'-O-(2-methoxyethyl) (MOE); {P} = phosphate; f = 2'-fluoro

The nature of series [1]: ssRNA stability in hepatocyte cell homogenate assay (Example 65). Conditions: mouse hepatocyte homogenate, LC-MS; Test 1. The series is classed as in vitro ADME. The protocol:
Hepatocytes were harvested from bal/c mice in ice-cold hepatocyte wash media (William E Media) with fetal bovine serum, sedimented by centrifugation at 1000 g for 8 minutes and then washed with hepatocyte wash media. Hepatocytes were homogenized with RIPA buffer (50 mM Tris pH 7.5, 10 mM MgCl2, 150 mM NaCl, 0.5% NP-40 alternative, one tablet of Roche protease inhibitor #11836170001), and centrifuged at 14000 g for 15 minutes at 4° C. and the supernatant was removed and stored in ice. Protein concentration (BSA mg/mL) was determined with Bradford assay and adjusted to a final protein concentration of 2 mg/mL by addition of Ripa buffer volume or cell homogenate volume.
[…] were homogenized in a homogenation buffer (20 mM Tris, pH 8, 20 mM EDTA and 0.1 M NaCl in 0.5% NP-40) at time points 0, 5, 10, 20, 30, 40 and 60 minutes (Exception: 06/408877 at time points 0, 15, 30, 60, 120 and 240 mins, 06/409044, at time points 0, 0.5, 1, 2, 4, 8, and 18 hours). An internal standard (18/355868, a 27-mer, 2′-O-methoxyethyl-modified phosphorothioate oligonucleotide, or 19/116847, a 5-10-5 gappmer, 2′-O-methoxyethyl-modified phosphorothioate oligonucleotide) with concentration at 20 ug/g was added prior to extraction. Tissue samples were extracted with 70 μL of NH4OH and 240 μL of phenol/chloroform/isoamyl alcohol (25:24:1). The supernatant was removed after centrifugation at 14000 rpm for 2 min. The remaining extractant was vortexed with an additional […] of water and the aqueous layer was removed and combined with the supernatant after centrifugation at 14000 rpm for 2 minutes.
Triethylammonium acetate solution at 1M ([…]) was added to the supernatant. The aqueous layer of the mixture was loaded onto the pre-conditioned Biotage™ Phenyl Solid Phase Extraction Plate (SPE plate) after centrifugation at 9000 rpm for 20 minutes. The SPE plate was washed several times with water. The sample was then eluted with 1.5 mL of 1% TEA in 90% MeOH and filtered through the Protein Precipitation Plate (Phenomenex™). The elutent was evaporated to dryness and diluted to 200 μL with 50% quenching buffer (8 M urea, 50 mM EDTA) and water before sample injection.
An Agilent 1100 Series LC/MSD system was connected in-line to a mass spectrometry. Mass spectrometer was operated in the electrospray negative ionization mode. The nebulizer nitrogen gas was set at […] and the drying nitrogen gas was set at 12 L/min. The drying temperature was 325° C. Samples (25 μL/well) were introduced via an auto sampler and reversed-phase chromatography was carried out with an XBridge OST C18 2.5 μm 2.1 mm×50 mm HPLC column using a flow rate of 300 μL/min at 55° C. The ion pair buffers consisted of A: 5 mM tributylammonium acetate (TBAA) in 20% acetonitrile and B: […] TBAA in 90% acetonitrile and the loading buffer was 25 mM TBAA in 25% Acetonitrile. Separation was performed on a 30% to 70% B in 9 min and then 80% B in 11 min gradient.
Quantitative analysis of oligonucleotide and internal standard by extracted ion chromatograms of the most abundant ions was performed using MSD ChemStation software. The results are expressed as half-time (T1/2) in the table below.

A short description of series [2]: Modified ssRNA 5′-phosphate serum stability assay (Example 60). The series is classed as in vitro ADME. Particulars: full length ssRNA with 5′-terminal phosphate; 10 μM in 95% fresh mouse serum, 37° C., LC/MS. An excerpt: A serum stability assay is useful for evaluating the stability of oligomeric compounds in the presences of nucleases and other enzymes found in serum. For example, the stability of a 5′-terminal phosphate group of an oligomeric compound can be evaluated by assessing the ability of the 5′-terminal phosphate group to remain attached to the oligomeric compound in the presence of serum. Accordingly, a serum stability assay was employed to evaluate the stability of modified ssRNAs having a 5′-terminal phosphate group.
Various modified ssRNAs, shown below, having a 5′-terminal phosphate group (10 μM) were dissolved in 95% of fresh mouse serum and incubated at 37° C. Aliquots of serum (100 μL) were removed after 0, 1, 3, 6 or 24 hours of incubation times. The serum samples were immediately quenched and snap frozen. The samples were extracted by the strong anion exchange (SAX) and octadecylsilyl (C-18) columns. For each incubation time, the amount of full length modified ssRNA having a 5′-terminal phosphate group was determined by LC/MS, and the half-life of the full length modified ssRNA having a 5′ terminal phosphate group was calculated. The results are expressed as half-time (T1/2) in the table below.

As to “P-UfUfGfUfCfUfCfUfGfGfUfCfCfUfUfAfCfUfUfAeAe (antisense UUGUCUCUGGUCCUUACUUAA; sugars from the 5' end f19 e2, 5' {P}, backbone not given here) [ISIS 404320, modified ssRNA targeting PTEN]”, the “T1/2 Test 1” value in series [1] is listed as 4 min. Besides, the “T1/2” value in series [2] is recorded as 4 h.
